Laboratory results as given in publication PMC7613515, “Reading and erasing of the phosphonium analogue of trimethyllysine by epigenetic proteins” (Communications Chemistry, 2022).

Target: T1, KDM5APHD3 (JARID1A-PHD3, residues M1489–V1641) (Homo sapiens, UniProt P29375)
T1 construct: KDM5APHD3 (JARID1A-PHD3, residues M1489–V1641); made in house; host or cells: E. coli
T1 sequence (P29375 1489-1641): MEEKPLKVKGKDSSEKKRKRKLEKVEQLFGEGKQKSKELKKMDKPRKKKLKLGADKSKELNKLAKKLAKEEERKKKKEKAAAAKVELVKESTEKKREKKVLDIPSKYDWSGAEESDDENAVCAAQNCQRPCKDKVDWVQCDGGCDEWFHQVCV
Test: ITC, association of histone H3 peptides with KDM5APHD3
Format: binding
Settings: 25 °C, H3 1-10 peptide, Tris (50 mM), NaCl (20 mM), pH 7.5, from 3 to 5 experiments, ± SD
From the text: We investigated the thermodynamics of association of the H3KP4me3 peptide with five representative human reader domains containing either a PHD zinc finger or TTD, i.e. KDM5APHD3 (JARID1A-PHD3, residues M1489–V1641)[10], TAF3PHD (R857–K924)[22], BPTFPHD (L2583–N2751)[23], SGF29TTD (R115–K293)[24] and KDM4ATTD (JMJD2A, Q897-P1011)[25], selected on the basis of their preference for binding Ν^ε-trimethyllysine over other (non)methylation marks (Kme0 < Kme1 < Kme2 < Kme3), and their domain and aromatic cage diversity. The recombinant readers were produced in E. coli following reported procedures. Isothermal titration calorimetric (ITC) analyses were used to determine the dissociation constant (Kd), the Gibbs free energy of binding (ΔG°), the enthalpy of binding (ΔH°), and the entropy of binding (ΔS°). […] (Table 1, Fig. 2, Supplementary Fig. 1).
The following purified reader domains: TAF3PHD (R857-K924), KDM5APHD3 (JARID1A, M1489-V1641), BPTFPHD (L2583-N2751), KDM4ATTD (JMJD2A, Q897-P1011) and SGF29TTD (R115-K293) were prepared as reported[10],[22]–[26]. The histone lysine demethylase were produced and purified to high purity via reported procedures KDM3A (JMJD1A, T515-S1317)[41], KDM4AJmjC[39] (JMJD2A, M1-L359), KDM4EJmjC (JMJD2E, M1–Q337)[34] and KDM7B[40] (PHF8, M37-N483 [NP_001171]). KDM5DJmjC was produced using an N-terminal hexa-His tagged KDM4D (KDM4DM1-L358) DNA construct, transformed into BL21(DE3) competent cells for recombinant protein production. Colonies were used to inoculate of LB media (50 mL) containing kanamycin (50 µg·mL^−1) and chloramphenicol (34 µg·mL^−1), which was placed in a 37 °C shaker overnight. The starter culture (10 mL) was used to inoculate TB media (6 × 1 L) containing kanamycin (50 µg·mL^−1) in 2 L baffled shaker flasks. After reaching an of OD600 of ~0.8, the temperature was reduced to 18 °C; at OD600 ~0.9 the cells were induced by the IPTG (0.5 mM) addition. After shaking overnight, the culture was centrifuged (5000 rpm, 10 mins), the media was decanted, and the cell pellet was suspended in Lysis Buffer [HEPES (50 mM), NaCl (500 mM), imidazole (20 mM), glycerol (5%) and TCEP (0.5 mM) in water (pH 7.4)]. The suspension was lysed by passaging through a high-pressure cell breaker (Avestin – EmulsiFlex-C5) for three rounds. The lysate was cleared by centrifugation (60 minutes, 36,000 × g, 4 °C), then loaded onto a Ni NTA gravity column. […]
ITC studies followed a reported procedure. […] Histone peptide titrations were performed with the same reader batches. Solutions of the reader in buffer (25–40 µM) and of the histone H3 peptide (350–600 µM) in buffer were prepared. […] Heats of dilution for histone peptides determined in control experiments were subtracted from the titration binding data. […]

C[C@H](N)C(=O)N[C@@H](CCCNC(=N)N)C(=O)N[C@H](C(=O)N[C@@H](CCCC[P+](C)(C)C)C(=O)N[C@@H](CCC(N)=O)C(=O)N[C@H](C(=O)N[C@@H](C)C(=O)N[C@@H](CCCNC(=N)N)C(=O)N[C@@H](CCCCN)C(=O)N[C@@H](CO)C(N)=O)[C@@H](C)O)[C@@H](C)O [H3KP4me3]
-TΔS°: 1.9 ± 0.1 kcal/mol | ΔG°: -9.1 ± 0.1 kcal/mol | ΔH°: -11.0 ± 0.1 kcal/mol
